From patent EP3048886B1, “3, 4-BIS-BENZYLSULFONYLBUTANENITRILE AND ITS PHARMACEUTICAL USE” (Olatec Therapeutics LLC, priority 2013, dated 2015) come the findings set out here.

In test [1] the test system is tail flick reaction to heat. Briefly: tail flick test (49°C water bath) in mice. As to conditions: mouse, in vivo. As to the method: The tail flick test is a test of the pain response in animals. The tail flick test is used in basic pain research and to measure the effectiveness of analgesics, by observing the tail flick reaction to heat in an animal. This test assesses the nociceptive response to a local pain stimulus, and the ability of a drug to inhibit this response.
Vehicle control (DMSO) and test compound 3,4-bis-benzylsulfonylbutanenitrile in DMSO were administered by oral gavage to mice with a volume of 5 mL/kg, immediately prior to testing, at time zero. The test compound was administered at a dosage of 500 mg/kg in DMSO. Positive control morphine in water was administered at time zero by subcutaneous injection at 8 mg/kg to mice. […] The purpose of morphine is not to serve as a comparison with the test compound. Each group had 10 mice.
The response of mice to heat stimulus was evaluated by measuring the time of tail-flick or tail-flick latency from 49°C water bath. Briefly, the animal was held with its tail hanging down. Approximately 5.08 cm (2 inches) of the tail was immersed in a beaker of water at 38±1 °C for about 30 seconds, and this was done twice to acclimate the animal to the procedure.
Subsequently, approximately 5.08 cm (2 inches) of the tail was immersed in a beaker of water at 49±1 °C, at which point a timer was started. […]
In general terms: Thermal pain tests record how soon the animal reacts.

Test [2] has as its system arachidonic acid-induced ear swelling. Briefly: topical arachidonic acid-induced ear swelling model in mice. Format: in vivo. As to conditions: inhibition of ear swelling vs vehicle, male ICR mice; topical application 30 min before and 15 min after arachidonic acid; measured at 90 minutes after arachidonic acid application. On the procedure:
The test compound, indomethacin (positive control), and vehicle were evaluated for anti-inflammatory activity in a topical arachidonic acid-induced ear swelling model in mice.
Male ICR mice weighing 22 ± 2 g were used and randomly divided; the test compound and vehicle control had 10 mice, and indomethacin had 5 mice. Arachidonic Acid (0.5 mg in 20 µl of acetone:ethanol/1:1) was applied topically to the anterior and posterior surfaces of the right ear of each mouse. Test substances and vehicle, as listed in Table 2 were similarly applied 30 min before and 15 min after arachidonic acid application. The thickness of the right ear and the left ear was measured and the difference calculated as an indication of the inflammation in the right ear. Ear swelling was measured by a Dyer model micrometer gauge at 60 and 90 minutes after arachidonic acid application as an index of inflammation. Percent inhibition was calculated according to the formula: Ic - It/Ic x 100, where Ic and It refers to increase of ear thickness (mm) in control and treated mice, respectively. ANOVA and Dunnett's test were employed to ascertain significant difference between vehicle control and treated groups. Significance is set at P<0.05 level.

For orientation: % Inhibition means the share of the control response that was lost under treatment. The low end stands for a response near the control, the high end for a response far below the control.

For `CN1CC[C@]23c4c5ccc(O)c4O[C@H]2[C@@H](O)C=C[C@H]3[C@H]1C5` [morphine], in test [1], the “tail flick latency compared with vehicle-treated mice” value is “not”.

Regarding `N#CCC(CS(=O)(=O)Cc1ccccc1)S(=O)(=O)Cc1ccccc1` (centres unmarked) [3,4-bis-benzylsulfonylbutanenitrile], the “% Inhibition” value in test [2] is 34%.
